Results published in US20120114636A1, “LOW MOLECULAR WEIGHT CYCLIN E (LMW-E) AS A BIOMARKER FOR PERSONALIZATION OF CANCER THERAPIES” (The Board of Regents of the University of Texas System, priority 2009, published 2012).
Several values for one entry are separate records, joined by “and”; a condition that tells them apart may be missing. Identical values can stand only once. Like-named read-outs stand apart in the source and are kept apart here.

Experiments:
Type in all cases: cell-based, human
[1] = test system: CDK2 protein in MCF-7/Ac1 cells; assay: Western blot of CDK2 protein levels in adenovirus-infected cells; conditions: letrozole
Method: Western blot analysis. Cell lysates were prepared and subjected to western blot analysis as described previously (Akli et al., 2004). Briefly, 50 μg of protein were subjected to electrophoresis on SDS-PAGE and transferred to Immobilon P overnight at 4° C. at […] constant voltage. The blots were blocked overnight at 4° C. in BLOTTO [5% nonfat dried milk in 20 mM Tris, 137 mM NaCl, and 0.05% Tween (pH 7.6)]. After being washed, the blots were incubated in primary antibodies for 3 h. Primary antibodies used were cyclin E (HE-12; Santa Cruz Biotechnology), p21 (0P64; Oncogene Research Products, Boston, Mass.), p27 (K25020; BD Biosciences-Transduction Laboratories, Lexington, Ky.), cyclin-dependent kinase 2 (CDK2; Transduction Laboratories), and actin (Chemicon International, Inc., Temecula, Calif.). Blots were then incubated with goat anti-mouse or anti-rabbit immunoglobulin-horseradish peroxidase conjugate at a dilution of 1:5000 in BLOTTO for 1 h and finally washed and developed by using the Renaissance chemiluminescence system as directed by the manufacturer (Perkin-Elmer Life Sciences, Inc., Boston, Mass.). Western blots were quantitated by densitometric analysis using IPLab Gel software (Scientific Image Processing, Vienna, Va.). Densitometric values of actin were used to standardize for equal protein loading. These values were introduced into the software Graph-Pad Prism version 4.0 (GraphPad Software, Inc., San Diego, Calif.) for statistical analysis.
MCF-7/Ac1 cells were cultured in IMEM with 10% charcoal-stripped serum medium (CSSM) without phenol red and with 600 μg/ml of G418 for 4 days before plating. […] Cells were then infected with the indicated adenoviruses (at 4000 m.o.i.) 24 hours before drug treatment.

[2] = test system: cyclin E-associated kinase activity in MCF-7/Ac1 cells; assay: Cyclin E-associated kinase assay (histone H1); conditions: with 25 nM AD, 3 days
Method: Immunoprecipitation and Immunoblotting. Two hundred fifty μg of cell extracts were used per immunoprecipitation with polyclonal antibody to cyclin E or polyclonal antibody to CDK2, coupled to protein A beads. After being washed, the immunoprecipitates were subjected to electrophoresis in 13% gels, transferred to Immobolin P, blocked, and incubated with the indicated antibodies as already described.
MCF-7/Ac1 cells were treated with the indicated concentrations of letrozole and AD for 3 days. Cyclin E kinase assays were performed by immunoprecipitating equal amounts of cell lysate (250 μg) with monoclonal antibodies to cyclin E coupled to protein A beads, using histone H1 as substrate. […] The same cell lysates were subjected to western blot analysis (50 μg of protein) with the indicated antibodies. […] The same cell lysates were first immunoprecipitated with cyclin E followed by western blot for p21 and p27. […] The same cell lysates were first immunoprecipitated with CDK2 followed by western blot for p21 and p27. The levels of proteins were measured by densitometric scanning of the corresponding bands and normalized using actin values. The values indicated at the bottom were compared to the values obtained with untreated cells.

[3] = test system: MCF-7/Ac1 cells; assay: Cell number of adenovirus-infected cells (LacZ, cyclin EL, T1, T2); conditions: for inhibition at 1 µM: Homo sapiens, MCF7, 1 μM letrozole, read-out: inhibition of AD-induced growth
Source text: LMW cyclin E, but not full-length cyclin E, overexpressing MCF-7/Ac1 cells partially override the letrozole inhibition of AD-induced S-phase entry and AD-induced CDK2 protein levels. Since overexpression of LMW cyclin E deregulates the G1 to S transition, the inventors interrogated the role of full-length and LMW cyclin E in letrozole response. To this end, the inventors examined the sensitivity of cyclin E overexpressing MCF-7/Ac1 cells to the growth inhibitory effect of letrozole using adenoviruses to overexpress full-length and LMW cyclin E (FIGS. 24A-24D). MCF-7/Ac1 cells were cultured in charcoal stripped serum media (CSSM) for 4 days before infecting them with 4000 m.o.i. of either LacZ, full-length cyclin E (cyclin EL) or LMW cyclin E (cyclin E-T1 and cyclin E-T2). Twenty-four hours later, cells were left either untreated, treated with 25 nM AD alone, or treated with 25 nM AD plus 1 μM letrozole for an additional 3 days (FIGS. 24A-24B). Following the treatment, cells were enumerated or subjected to flow cytometry analysis.
MCF-7/Ac1 cells were cultured in IMEM with 10% charcoal-stripped serum medium (CSSM) without phenol red and with 600 μg/ml of G418 for 4 days before plating. Triplicate wells of 6-well plates were then infected with the indicated adenoviruses (at 4000 m.o.i.) 24 hours before drug treatment. Cells were then left untreated (E2W, estrogen withdrawal) or treated with 25 nM AD (AD) or treated with 25 nM AD and 1 μM letrozole (AD+Let) and collected 3 days later for cell number. Cell growth is expressed as the percentage of the cells compared with the control cells (25 nM AD treated cells). […] MCF-7/Ac1 cells were treated as described in A, and collected for flow cytometry analysis. Histograms represent the S-phase fraction expressed as the percentage of the cells in S-phase compared with the control cells (25 nM AD treated cells). […] The same cell lysates as in A and B were subjected to western blot analysis (50 μg of protein) with cyclin E and CDK2 antibodies. The bar graph represents the densitometric values of the phosphorylated CDK2 bands. […] Left, MCF-7/Ac1 cells were cultured in IMEM with 10% charcoal-stripped serum medium (CSSM) without phenol red and with 600 μg/ml of G418 for 4 days before plating. Cells were then infected with the indicated adenoviruses (at 4000 m.o.i.) 24 hours before drug treatment. Cells were then treated with 25 nM AD and 1 μM letrozole and collected 3 days later for cell number. […] Columns, mean of two to three experiments, each in triplicates; bars, S.D.
To directly address this question, MCF-7/Ac1 cells were cultured in charcoal stripped serum media (CSSM) for 4 days before adding medium with no virus or with 4000 m.o.i. of either LacZ, or LMW cyclin E (cyclin E-T1) adenoviruses. 24 hours later, cells were left untreated, treated with 25 nM AD alone, or treated with 25 nM AD plus 1 μM letrozole for 3 days (FIG. 24D). The AD-induced growth of MCF-7/Ac1 cells was inhibited by letrozole by 51% in uninfected cells and by 58% in LacZ infected cells while the growth of cyclin E-T1 infected cells was inhibited by only 20% (FIG. 24D, left).

[4] = test system: MCF-7/Ac1 cells; assay: Sequential AD/letrozole then roscovitine treatment: cell number and CDK2 western blot; conditions: LMW cyclin E overexpressing cells
Method: Medium alone or medium plus DMSO were used as controls. A schematic of the treatment strategy is depicted in FIG. 25A. At the conclusion of the treatment, cells were enumerated and subjected to western blot analysis with CDK2 (total) and phospho-CDK2 antibodies.
Cells were then infected with the indicated adenoviruses (at 4000 m.o.i.) 24 hours before drug treatment.

N#Cc1ccc(C(c2ccc(C#N)cc2)n2cncn2)cc1 [letrozole]
CDK2 protein levels ([1]; LMW cyclin E (T1, T2) overexpressing cells): did not drop following letrozole treatment | total CDK2 protein levels, percent of the level in untreated, uninfected cells ([1]; cyclin EL overexpressing cells): 50% | total CDK2 protein levels, percent of the level in uninfected cells ([1]; uninfected and LacZ infected cells): 10% | concentration that blocked the AD-induced increase in cyclin E-associated kinase activity [2]: ≤ 0.125 µM | inhibition of AD-induced growth ([3]; 1 μM letrozole, cyclin EL, T1, and T2 infected cells, FIG. 24A): no significant growth inhibition | inhibition at 1 µM ([3]; LacZ infected cells, FIG. 24A): 56.1% | inhibition at 1 µM ([3]; LacZ infected cells, FIG. 24D): 58% | inhibition at 1 µM ([3]; cyclin E-T1 infected cells, FIG. 24D): 20% | inhibition at 1 µM ([3]; uninfected cells, FIG. 24A): 40.8% | inhibition at 1 µM ([3]; uninfected cells, FIG. 24D): 51% | increase in AD-induced proliferation not prevented by letrozole ([4]; AD plus 1 μM letrozole): 2.5 fold and 2.8 fold | phosphorylated/unphosphorylated CDK2 ratio ([4]; AD plus letrozole): 134-234%
